ChEMBL document CHEMBL5143621, “Design, synthesis, and biological evaluation of β-carboline 1,3,4-oxadiazole based hybrids as HDAC inhibitors with potential antitumor effects” (Bioorg Med Chem Lett, 2022)
Each block holds one compound with its values, some of them ahead of it. Calls of active or inactive are those of the source. No cut-off for these calls is given here.

Legend:
HCT-116 [1] = assay: Antiproliferative activity against human HCT-116 cells assessed as inhibition of cell proliferation incubated for 72 hrs by MTT assay; format: functional, cell-based; conditions: HCT-116, 72 h
Histone deacetylase 8 = target: T1, Histone deacetylase 8 (Homo sapiens, UniProt Q9BY41); assay: Inhibition of HDAC8 (unknown origin)
T1 sequence (Q9BY41 whole entry): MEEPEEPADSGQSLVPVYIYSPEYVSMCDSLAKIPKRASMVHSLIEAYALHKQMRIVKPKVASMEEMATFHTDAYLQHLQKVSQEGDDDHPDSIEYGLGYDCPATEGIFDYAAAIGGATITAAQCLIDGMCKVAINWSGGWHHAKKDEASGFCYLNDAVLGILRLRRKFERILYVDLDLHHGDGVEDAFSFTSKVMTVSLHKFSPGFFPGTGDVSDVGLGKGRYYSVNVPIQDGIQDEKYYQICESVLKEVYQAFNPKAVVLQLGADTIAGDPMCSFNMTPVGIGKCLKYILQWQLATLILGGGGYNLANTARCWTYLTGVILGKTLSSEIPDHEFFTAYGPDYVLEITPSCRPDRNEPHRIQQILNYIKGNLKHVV

A549 = assay: cells; format: functional, cell-based; conditions: Homo sapiens, A549, 72 h
Description: Antiproliferative activity against human A549 cells assessed as inhibition of cell proliferation incubated for 72 hrs by MTT assay

Histone deacetylase 1 = Histone deacetylase 1 (Homo sapiens, UniProt Q13547); assay: Inhibition of HDAC1 (unknown origin)
Sequence of Histone deacetylase 1 (Q13547 whole entry): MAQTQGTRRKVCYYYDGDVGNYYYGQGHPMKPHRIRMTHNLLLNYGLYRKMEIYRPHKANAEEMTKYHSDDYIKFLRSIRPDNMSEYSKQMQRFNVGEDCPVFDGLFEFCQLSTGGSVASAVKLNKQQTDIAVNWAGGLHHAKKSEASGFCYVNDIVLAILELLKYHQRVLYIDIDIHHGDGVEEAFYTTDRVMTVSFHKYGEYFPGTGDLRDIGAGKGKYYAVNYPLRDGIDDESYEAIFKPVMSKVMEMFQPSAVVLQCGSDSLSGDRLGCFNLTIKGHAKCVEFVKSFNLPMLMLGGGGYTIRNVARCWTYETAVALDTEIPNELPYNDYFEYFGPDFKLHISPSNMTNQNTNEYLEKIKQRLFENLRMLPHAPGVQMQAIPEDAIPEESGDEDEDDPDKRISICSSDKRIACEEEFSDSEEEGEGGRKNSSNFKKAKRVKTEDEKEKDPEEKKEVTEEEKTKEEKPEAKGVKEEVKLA

[2] = target: T2, Protein deacetylase HDAC6 (Homo sapiens, UniProt Q9UBN7); assay: Inhibition of HDAC6 (unknown origin)
T2 sequence (Q9UBN7 whole entry): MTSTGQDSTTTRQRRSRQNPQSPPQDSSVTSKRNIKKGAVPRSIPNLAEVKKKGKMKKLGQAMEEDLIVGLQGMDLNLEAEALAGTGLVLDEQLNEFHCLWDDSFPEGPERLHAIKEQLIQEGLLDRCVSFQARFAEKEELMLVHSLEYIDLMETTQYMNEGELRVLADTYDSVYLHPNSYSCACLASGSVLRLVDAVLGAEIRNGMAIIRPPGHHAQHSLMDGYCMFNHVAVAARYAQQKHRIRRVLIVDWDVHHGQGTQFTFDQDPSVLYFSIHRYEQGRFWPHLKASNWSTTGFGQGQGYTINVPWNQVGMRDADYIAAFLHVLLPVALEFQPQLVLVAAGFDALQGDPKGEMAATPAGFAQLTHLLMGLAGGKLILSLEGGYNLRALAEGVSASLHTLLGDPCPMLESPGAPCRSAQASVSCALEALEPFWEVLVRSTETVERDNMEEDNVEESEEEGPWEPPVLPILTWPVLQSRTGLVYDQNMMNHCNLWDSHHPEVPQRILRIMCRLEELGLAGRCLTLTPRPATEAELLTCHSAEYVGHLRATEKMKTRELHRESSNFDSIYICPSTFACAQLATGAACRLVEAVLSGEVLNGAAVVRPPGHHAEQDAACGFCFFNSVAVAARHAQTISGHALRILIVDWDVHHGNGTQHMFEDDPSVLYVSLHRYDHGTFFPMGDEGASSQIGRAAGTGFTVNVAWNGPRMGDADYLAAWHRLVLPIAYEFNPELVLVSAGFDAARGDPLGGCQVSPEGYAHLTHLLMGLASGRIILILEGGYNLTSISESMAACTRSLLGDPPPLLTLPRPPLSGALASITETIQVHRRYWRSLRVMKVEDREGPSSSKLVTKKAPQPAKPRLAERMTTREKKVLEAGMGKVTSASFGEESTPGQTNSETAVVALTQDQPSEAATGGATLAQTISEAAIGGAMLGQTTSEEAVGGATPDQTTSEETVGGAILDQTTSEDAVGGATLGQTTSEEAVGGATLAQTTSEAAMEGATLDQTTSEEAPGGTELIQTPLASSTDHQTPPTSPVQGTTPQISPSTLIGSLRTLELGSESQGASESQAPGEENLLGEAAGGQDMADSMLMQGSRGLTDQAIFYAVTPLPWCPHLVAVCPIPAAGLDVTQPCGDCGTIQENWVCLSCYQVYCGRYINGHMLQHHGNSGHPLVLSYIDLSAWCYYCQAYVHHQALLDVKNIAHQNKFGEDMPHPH

MCF7 = assay: cells; format: functional, cell-based; conditions: Homo sapiens, MCF7, 72 h
Description: Antiproliferative activity against human MCF7 cells assessed as inhibition of cell proliferation incubated for 72 hrs by MTT assay

Histone deacetylase 3 = Histone deacetylase 3 (Homo sapiens, UniProt O15379); assay: Inhibition of HDAC3 (unknown origin)
Sequence of Histone deacetylase 3 (O15379 whole entry): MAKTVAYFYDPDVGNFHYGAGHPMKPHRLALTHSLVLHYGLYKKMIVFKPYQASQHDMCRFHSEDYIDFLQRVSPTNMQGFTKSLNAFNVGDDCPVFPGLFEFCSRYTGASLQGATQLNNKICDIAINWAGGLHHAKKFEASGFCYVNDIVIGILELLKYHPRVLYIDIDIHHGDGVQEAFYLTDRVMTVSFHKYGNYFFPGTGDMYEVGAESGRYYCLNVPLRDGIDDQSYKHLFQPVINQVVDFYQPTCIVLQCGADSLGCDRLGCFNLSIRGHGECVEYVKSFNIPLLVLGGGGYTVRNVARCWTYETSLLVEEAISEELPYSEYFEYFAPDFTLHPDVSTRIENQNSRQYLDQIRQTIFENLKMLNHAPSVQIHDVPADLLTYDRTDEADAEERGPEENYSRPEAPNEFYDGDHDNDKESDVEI

Histone deacetylase 2 = Histone deacetylase 2 (Homo sapiens, UniProt Q92769); assay: Inhibition of HDAC2 (unknown origin)
Sequence of Histone deacetylase 2 (Q92769 whole entry): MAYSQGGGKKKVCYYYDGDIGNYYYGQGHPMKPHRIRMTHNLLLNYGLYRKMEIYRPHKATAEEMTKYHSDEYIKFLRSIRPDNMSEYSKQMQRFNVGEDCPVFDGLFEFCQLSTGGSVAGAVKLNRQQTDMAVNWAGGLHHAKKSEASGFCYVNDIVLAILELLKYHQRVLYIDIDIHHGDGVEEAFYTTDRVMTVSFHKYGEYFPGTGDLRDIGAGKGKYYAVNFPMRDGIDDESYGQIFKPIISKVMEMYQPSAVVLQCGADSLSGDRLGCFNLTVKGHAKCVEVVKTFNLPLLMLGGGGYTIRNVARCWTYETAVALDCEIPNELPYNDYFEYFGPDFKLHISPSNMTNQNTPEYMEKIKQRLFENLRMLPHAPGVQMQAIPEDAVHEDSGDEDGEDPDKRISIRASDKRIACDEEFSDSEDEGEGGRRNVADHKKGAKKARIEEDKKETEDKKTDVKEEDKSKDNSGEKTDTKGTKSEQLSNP

HCT-116 [3] = assay: Induction of apoptosis in human HCT-116 cells assessed as increase in number of brilliant blue apoptotic cells at 125 to 500 nM incubated for 48 hrs by Hoechst 33342 staining based fluorescence microscopic analysis; format: functional, cell-based; conditions: dose 125-500 nM
SW480 = assay: cells; format: functional, cell-based; conditions: Homo sapiens, SW480, 72 h
Description: Antiproliferative activity against human SW480 cells assessed as inhibition of cell proliferation incubated for 72 hrs by MTT assay

HCT-116 [4] = assay: Induction of apoptosis in human HCT-116 cells at 125 to 500 nM incubated for 48 hrs by AnnexinV-FITC/PI staining based flow cytometry; format: functional, cell-based; conditions: dose 125-500 nM
in vitro = conditions: human, L02 cells
Description: Cytotoxicity against human L02 cells assessed as inhibition of cell proliferation incubated for 72 hrs by MTT assay

HCT-116 [5] = assay: Inhibition of colony formation in human HCT-116 cell incubated for 48 hrs by crystal violet staining based analysis; format: functional; conditions: dose 125-500 nM, DDE = dose-dependent effect
HCT-116 [6] = assay: Inhibition of cell migration in human HCT-116 cells incubated for 48 hrs by wound healing scratch assay; format: functional, cell-based; conditions: dose 125-500 nM, DDE = dose-dependent effect

- IC50 (HCT-116 [1]): > 10000 nM
SMILES: O=C(CCc1nnc(-c2cc3c([nH]c4ccccc43)c(-c3ccccc3)n2)o1)NO

- IC50 (HCT-116 [1]): 6970 nM
SMILES: COc1cc(-c2nc(-c3nnc(CCC(=O)NO)o3)cc3c2[nH]c2ccccc23)cc(OC)c1OC

- IC50 (HCT-116 [1]): 2310 nM
SMILES: O=C(CCc1nnc(-c2cc3c([nH]c4ccccc43)c(-c3ccc(C(F)(F)F)cc3)n2)o1)NO

- IC50 (Histone deacetylase 8): > 600 nM
- IC50 (A549): 1340 nM
- IC50 (Histone deacetylase 1): 1.4 nM
- IC50 (HCT-116 [1]): 190 nM
- IC50 [2]: 7.3 nM
- IC50 (MCF7): 541 nM
- IC50 (Histone deacetylase 3): 3.6 nM
- IC50 (Histone deacetylase 2): 1.2 nM
SMILES: COc1cc(-c2nc(-c3nnc(CCCCC(=O)NO)o3)cc3c2[nH]c2ccccc23)cc(OC)c1OC

- IC50 (HCT-116 [1]): > 10000 nM
SMILES: COc1cc(-c2nc(-c3nnc(-c4ccc(C(=O)NO)cc4)o3)cc3c2[nH]c2ccccc23)cc(OC)c1OC

- IC50 (HCT-116 [1]): 1850 nM
SMILES: COc1cc(-c2nc(-c3nnc(CCCC(=O)NO)o3)cc3c2[nH]c2ccccc23)cc(OC)c1OC

- IC50 (Histone deacetylase 8): > 600 nM
- IC50 (A549): 1740 nM
- IC50 (Histone deacetylase 1): 2.2 nM
- IC50 (HCT-116 [1]): 173 nM
- IC50 [2]: 6 nM
- IC50 (MCF7): 695 nM
- IC50 (SW480): 382 nM
- IC50 (Histone deacetylase 3): 3.4 nM
- IC50 at 72 h (in vitro): > 10000 nM
- IC50 (Histone deacetylase 2): 2.2 nM
SMILES: O=C(CCCCc1nnc(-c2cc3c([nH]c4ccccc43)c(-c3ccc(C(F)(F)F)cc3)n2)o1)NO
- Activity (HCT-116 [3]): Active
- Activity (HCT-116 [4]): Active
- inhibition (HCT-116 [5]): Dde
- inhibition (HCT-116 [6]): Dde

- IC50 (HCT-116 [1]): 7180 nM
SMILES: O=C(CCCc1nnc(-c2cc3c([nH]c4ccccc43)c(-c3ccccc3)n2)o1)NO

- IC50 (Histone deacetylase 1): > 600 nM
- IC50 (HCT-116 [1]): > 10000 nM
SMILES: Nc1ccccc1NC(=O)c1ccc(-c2nnc(-c3cc4c([nH]c5ccccc54)c(-c4ccc(C(F)(F)F)cc4)n3)o2)cc1

- IC50 (A549): < 5000 nM
- IC50 (Histone deacetylase 1): 1.2 nM
- IC50 (HCT-116 [1]): 247 nM
- IC50 (MCF7): 3760 nM
SMILES: O=C(CCCCc1nnc(-c2cc3c([nH]c4ccccc43)c(-c3ccccc3)n2)o1)NO

- IC50 (HCT-116 [1]): 1360 nM
SMILES: O=C(CCCc1nnc(-c2cc3c([nH]c4ccccc43)c(-c3ccc(C(F)(F)F)cc3)n2)o1)NO

- IC50 (HCT-116 [1]): 9400 nM
SMILES: O=C(NO)c1ccc(-c2nnc(-c3cc4c([nH]c5ccccc54)c(-c4ccc(C(F)(F)F)cc4)n3)o2)cc1
